Source: patent US20140341818A1, “SOLUBILIZED MAGNOLOL ANALOGS” (COLGATE-PALMOLIVE COMPANY, priority 2011, published 2014)

Assays:
[1] = assay type: physicochemical
Source text: The dimethyl isosorbide is capable of solubilizing up to 200 g per liter of neat propyl magnolol or isopropyl magnolol, up to 100 g per liter of isobutyl magnolol, or up to 50 g per liter of butyl magnolol. In certain embodiments, the amount of dimethyl isosorbide is at least 5 times the weight of the propyl magnolol or isopropyl magnolol in the composition. In certain embodiments, the amount of dimethyl isosorbide is at least 10 times the weight of isobutyl magnolol in the composition. In certain embodiments, the amount of dimethyl isosorbide is at least 20 times the weight of butyl magnolol in the composition.

[2] = Solubilizing isobutyl magnolol with other solubilizers; assay type: physicochemical
Source text: It was surprising that dimethyl isosorbide was able to solubilize these analogs.

In the case of `CCCCc1ccc(O)c(-c2cc(CCCC)ccc2O)c1` [butyl magnolol, 5,5′-di-n-butylbiphenyl-2,2′-diol], the “amount of neat magnolol analog solubilized by dimethyl isosorbide” value [1] is reported as “up to 50 g per liter”.

With `CCCc1ccc(O)c(-c2cc(CCC)ccc2O)c1` [propyl magnolol, 5,5′-di-n-propylbiphenyl-2,2′-diol] the “amount of neat magnolol analog solubilized by dimethyl isosorbide” value [1] was “up to 200 g per liter”.

With `CC(C)Cc1ccc(O)c(-c2cc(CC(C)C)ccc2O)c1` [isobutyl magnolol, 5,5′-di-isobutylbiphenyl-2,2′-diol] the “amount of neat magnolol analog solubilized by dimethyl isosorbide” value [1] was “up to 100 g per liter”, the ability to solubilize ([2]; solubilizer C12-15 alkyl benzoate) was “not able to solubilize” and the ability to solubilize ([2]; solubilizer PEG-7 glyceryl cocoate) was “not able to solubilize”. The ability to solubilize ([2]; solubilizer PEG-8/SMDI copolymer) was “not able to solubilize”, the ability to solubilize ([2]; solubilizer PPG-2 hydroxyethyl cocoamide) was “not able to solubilize” and the ability to solubilize ([2]; solubilizer PPG-5 laureth-5 (Eumulgin ES)) was “not able to solubilize”. The ability to solubilize ([2]; solubilizer isopropyl myristate) was “not able to solubilize” and the ability to solubilize ([2]; solubilizer poloxamer 124) was “not able to solubilize”.

With `CC(C)c1ccc(O)c(-c2cc(C(C)C)ccc2O)c1` [isopropyl magnolol, 5,5′-di-isopropylbiphenyl-2,2′-diol] the “amount of neat magnolol analog solubilized by dimethyl isosorbide” value [1] was “up to 200 g per liter”.
